Test results taken from article PMC12794336, “Unconventional chalcogen-containing azolylidene metal complexes as potential anticancer therapeutics” (Chemical Science, 2025).
Read-outs that look alike come from different tables or passages of the source.

Legend:
[1] = tested on: non-cancerous human embryonic kidney HEK293T cells; assay: Cytotoxicity, PrestoBlue assay, HEK293T; assay type: cell-based; settings: 72 h, read-out: IC50 (µM) after 72 h, HEK293T
Description: (§1) counterpart, A2780cis, were procured from the European Collection of Cell
(§2) (ThermoFisher, USA) base medium supplemented with 10% Foetal Bovine
(§3) Serum (FBS; Sigma, Germany) and 1% of Penicillin-Streptomycin
(§4) (ThermoFisher, USA). Additionally, A2780cis cell line was cultured in the
(§5) drug. The human embryonic kidney cell line, HEK293T, and HeLa cell line were
(§6) obtained from American Type Culture Collection (ATCC, USA) and were cultured
(§7) in DMEM GlutaMAX (ThermoFisher, USA) base medium, supplemented with
(§8) 10% FBS and 1% of Penicillin-Streptomycin. All cell lines were maintained in a
(§9) humidified incubator at37 °C and 5% CO2.
(§10) 4.2. Cytotoxicity studies
(§11) cells/mL (A2780cis and HEK293T) was dispensed into flat bottom 96-well plates
(§12) and allowed to attach overnight. On the next day, 10 mM stock solutions of the
(§13) tested compounds were prepared in DMSO, then diluted with media to the final
(§14) concentration range of 0 - 100 µM and applied to the cells; 0.1% DMSO final
(§15) solution and 10 µM final concentration gambogic acid were used as negative and
(§16) positive controls, respectively. After 72 h incubation in a humidified incubator
(§17) under 5% CO2 at 37 °C, PrestoBlue™ cell viability reagent (Cat. No. A13262,
(§18) Invitrogen, USA) was added to cultures at a 1:10 ratio according to the
(§19) manufacturer instructions, and samples were incubated for 1.5 h. Fluorescence
(§20) at 560/590 nm was detected with Tecan Infinite 500 microplate reader (Tecan,
(§21) Switzerland). Three wells were assessed for each concentration of the tested
(§22) compounds and three independent experiments were performed. Non-linear
(§23) regression and IC50 value calculation were performed in GraphPad Prism 9 using
(§24) the build-in function “Dose response- Inhibition”.

[2] = tested on: A2780cis cells with acquired resistance to cisplatin; assay: Cytotoxicity, PrestoBlue assay, A2780cis; assay type: cell-based, human; settings: for IC50: 72 h, read-out: IC50 (µM) after 72 h, A2780cis; for Resistance index (RI): RI = IC50 A2780cis/IC50 A2780
Description: as §1, §2, §3, §4, §5, §6, §7, §8, §9, §10, §11, §12, §13, §14, §15, §16, §17, §18, §19, §20, §21, §22, §23, §24

[3] = tested on: A2780 ovarian cancer cell line; assay: Cytotoxicity, PrestoBlue assay, A2780; assay type: cell-based, human; settings: read-out: IC50 (µM) after 72 h, A2780
Description: as §1, §2, §3, §4, §5, §6, §7, §8, §9, §10, §11, §12, §13, §14, §15, §16, §17, §18, §19, §20, §21, §22, §23, §24

[4] = tested on: DNA synthesis in HeLa cells; assay: EdU incorporation assay, fluorescence cell microscopy; assay type: cell-based; settings: for Degree of inhibition of DNA synthesis: 3 µM, 24 h, gemcitabine = 100%, DMSO = 0%
Source text: The inhibitory effect of Pt1^Y and Pt2^Y (Y = NR, O, S) on DNA synthesis during cell proliferation was quantified in cellulo using an EdU incorporation assay and fluorescence cell microscopy (Fig. 6 and SI Fig. 12).[70] Gemcitabine, a clinically-approved DNA synthesis inhibitor,[71] was used as a positive control (100% inhibition), and the cells treated with an equivalent amount of DMSO served as a negative control (“untreated”, 0% inhibition). Cisplatin and transplatin were included as references. DNA synthesis was blocked to various degrees in the cells treated with the different platinum complexes. […]
4.4. EdU incorporation assay
EdU incorporation assay was performed using a Click-iT EdU Imaging kit
(C10086, Thermo Fisher, Switzerland) according to the manufacturer’s protocol.
HeLa cells were seeded into a black 96-well PhenoPlate with optically clear flat-bottom (Revity 6055302) at a concentration of 4000 cells per well. After 24 h, the cells were treated with the tested compounds Pt1Y and Pt2Y (Y = NR, O, S), […]
of the compounds in HeLA cells). Gemcitabine (1 and 3 µM) and an equal volume of DMSO were used as positive and negative control, respectively. Each condition was tested in triplicate. The assay was performed after an incubation of 24 h. The cells were additionally stained by Hoechst 33342 diluted in PBS with 3% BSA. The fluorescent signal was detected with the widefield INCell 2200 microscope (GE health care, USA) using a 10X/0.45 objective. The DAPI channel was used for Hoechst 33342 emitting blue (λex = 390/ 18 nm, λem = 432.5/ 48 nm), and the FITC channel for Edu-AlexaFluor-488 (λex = 475/ 28 nm, λem = 511.5/23 nm) emitting in green. For each well, 9 fields of view were captured. Image analysis was performed using CellProfiler (v4.2.5), CellProfiler Analyst (v3.0.4) and FIJI (v1.54k) software. Images were first pre -processed (correction for flat - field illumination using a Gaussian-based smoothing filter and rescaled for segmentation). All cells were segmented using the minimum cross -entropy thresholding method on an intermediate image composed of the addition of 2 channels imaged. For all cells, featur es of size, shape, and fluorescence intensities were extracted. Cells were then either classified directly as live or dead based on a combination of their size and EdU staining intensity or classified automatically as live or dead using a machine learning -based random forest classifier model in a multiparametric approach. The readout used is the average percentage of live or dead cells in each condition and the values are normalised to gemcitabine at 3 μM and DMSO (untreated) with the corresponding volume at […]

[5] = n-octanol/water partition coefficient; assay type: physicochemical
Source text: Resistance index (RI) ^a, and n-octanol/water partition coefficients (logPOW) | column: logPOW

[6] = tested on: ovarian cancer cell lines (A2780 and A2780cis); assay: Cytotoxicity stated jointly for both ovarian cancer cell lines
Description: as §1, §2, §3, §4, §5, §6, §7, §8, §9, §10, §11, §12, §13, §14, §15, §16, §17, §18, §19, §20, §21, §22, §23, §24

[7] = Homo sapiens, HEK-293T, PrestoBlue
[8] = Homo sapiens, A2780cis, PrestoBlue
[9] = Homo sapiens, A2780, 72 h, PrestoBlue

Row | SMILES | IC50 [1, 7] | IC50 [2, 8] | IC50 [3, 9] | IC50 ([1]; PrestoBlue) | IC50 ([2]; PrestoBlue) | IC50 ([3]; 72 h, PrestoBlue) | other results
1 | c1ccc(Cn2cc[n+](Cc3ccccc3)c2)cc1 [2NBn·HBr] | 51.1 ± 12.4 µM | 44.1 µM | 37.4 µM |  |  |  | 
2 | C[n+]1ccoc1 [1O·HI] | 59.1 ± 16.6 µM | 39.8 ± 2.6 µM | 11.8 µM |  |  |  | 
3 | C[n+]1cco[c]1[Pt-2]([I])([I])[n+]1ccccc1 [Pt1^O] |  |  |  | 18 ± 6 µM | 16 ± 4 µM | 8 ± 2 µM | IC50 ([1]; PrestoBlue, listed as Pt1^S): 47 ± 23 µM; Degree of inhibition of DNA synthesis [4]: 38%; Degree of inhibition of DNA synthesis ([4]; listed as Pt1^S): 6%; IC50 ([2]; PrestoBlue, listed as Pt1^S): 30 ± 29 µM; Resistance index (RI) [2]: 2.0; Resistance index (RI) ([2]; listed as Pt1^S): 2.4; IC50 ([3]; 72 h, PrestoBlue, listed as Pt1^S): 13 ± 8 µM
4 | CC(=O)OC[C@H]1O[C@@H]([S-])[C@H](OC(C)=O)[C@@H](OC(C)=O)[C@@H]1OC(C)=O.CCP(CC)CC.[Au+] [Auranofin, auranofin, reference compound] |  |  |  | 0.4 ± 0.1 µM | 1.9 ± 0.4 µM | 0.1 ± 0.1 µM | Resistance index (RI) [2]: 20.6
5 | Nc1ccn([C@@H]2O[C@H](CO)[C@@H](O)C2(F)F)c(=O)n1 [gemcitabine, reference compound] |  |  |  |  |  |  | inhibition at 1 µM ([4]; Homo sapiens, gemcitabine 1 µM, set as 100%, read-out: Degree of inhibition of DNA synthesis (positive control)): 100%
6 | CC[n+]1[c]([Au-][I])oc2ccccc21 [Au3^O] |  |  |  | 1 ± 0.1 µM | 5 ± 2 µM | 0.2 ± 0.2 µM | logPOW ([5]; n-octanol/water): 1.2 ± 0.4; logPOW ([5]; n-octanol/water, listed as Au3^S): 1.5 ± 0.1; logPOW ([5]; n-octanol/water, listed as Au3^Se): 1.4 ± 0.3; IC50 ([1]; PrestoBlue, listed as Au3^S): 1.9 ± 0.3 µM; IC50 ([1]; PrestoBlue, listed as Au3^Se): 0.1 ± 0.1 µM; IC50 ([2]; PrestoBlue, listed as Au3^S): 6.4 ± 0.4 µM; IC50 ([2]; PrestoBlue, listed as Au3^Se): 0.2 ± 0.1 µM; Resistance index (RI) [2]: 31.5; Resistance index (RI) ([2]; listed as Au3^S): 29.2; Resistance index (RI) ([2]; listed as Au3^Se): 3.4; IC50 ([3]; 72 h, PrestoBlue, listed as Au3^S): 0.2 ± 0.1 µM; IC50 ([3]; 72 h, PrestoBlue, listed as Au3^Se): 0.1 ± 0.1 µM
7 | CCn1c[n+](CC)c2ccccc21 [3NEt·HI] | > 100 µM | > 100 µM | > 100 µM |  |  |  | 
8 | CCn1[c]([Au-][I])[n+](CC)c2ccccc21 [Au3^NEt] |  |  |  | 2.1 ± 0.6 µM | 2.7 ± 0.1 µM | 0.6 ± 0.2 µM | logPOW ([5]; n-octanol/water): 1.6 ± 1.1; Resistance index (RI) [2]: 4.9
9 | [I][Pt-2]([I])([c]1n(Cc2ccccc2)cc[n+]1Cc1ccccc1)[n+]1ccccc1 [Pt2^NBn] |  |  |  | 1.4 ± 0.1 µM | 1.2 ± 0.1 µM | 0.6 ± 0.2 µM | logPOW [5]: 2.1 ± 0.8; IC50 [6]: ~1000 nM; Degree of inhibition of DNA synthesis [4]: 100%; Resistance index (RI) [2]: 1.9
10 | CC[n+]1csc2ccccc21 [3S·HI] | > 100 µM | > 100 µM | > 100 µM |  |  |  | 
11 | c1ccc(C[n+]2ccsc2)cc1 [2S·HBr] | > 100 µM | 73.5 µM | 58.6 µM |  |  |  | 
12 | c1ccc(C[n+]2c[se]c3ccccc32)cc1 [4Se·HBr] |  |  |  |  |  |  | IC50 ([1]; Homo sapiens, HEK-293T): 20.5 ± 14.2 µM; IC50 ([2]; Homo sapiens, A2780cis): 28.4 ± 8 µM; IC50 ([3]; Homo sapiens, A2780, 72 h): 13.5 ± 5.9 µM
13 | c1ccc(Cn2c[n+](Cc3ccccc3)c3ccccc32)cc1 [4NBn·HBr] | 35.2 ± 26.3 µM | 24.4 ± 11.7 µM | 15.2 ± 12.1 µM |  |  |  | 
14 | N.N.[Cl][Pt][Cl] [Cisplatin, cisplatin, reference compound] |  |  |  | 1.5 ± 0.2 µM | 8 ± 5 µM | 0.4 ± 0.1 µM | Degree of inhibition of DNA synthesis [4]: 62%; IC50 ([2]; PrestoBlue, listed as cisplatin): 8.4 ± 4.6 µM
15 | Cn1cc[n+](C)[c]1[Pt-2]([I])([I])[n+]1ccccc1 [Pt1^NMe] |  |  |  | 4 ± 1 µM | 2.8 ± 0.7 µM | 2.9 ± 0.2 µM | logPOW [5]: 1.3 ± 0.6; IC50 [6]: ~3000 nM; Degree of inhibition of DNA synthesis [4]: 29%; Resistance index (RI) [2]: 1.0
16 | c1ccc(C[n+]2ccoc2)cc1 [2O·HBr] | > 100 µM | > 100 µM | > 100 µM |  |  |  | 
17 | CC[n+]1coc2ccccc21 [3O·HI] | > 100 µM | > 100 µM | > 100 µM |  |  |  | 
18 | C[n+]1ccsc1 [1S·HI] | > 100 µM | > 100 µM | > 100 µM |  |  |  | 
19 | Cn1cc[n+](C)c1 [1NMe·HI] | > 100 µM | > 100 µM | > 100 µM |  |  |  | 
20 | c1ccc(C[n+]2csc3ccccc32)cc1 [4S·HBr] | 36.8 ± 19.3 µM | 37.9 ± 1.7 µM | 34.7 µM |  |  |  | 
21 | N.N.[Cl][Pt+2][Cl] [transplatin, reference compound] |  |  |  |  |  |  | Degree of inhibition of DNA synthesis [4]: 23%
